Measured values as given in article PMC8073686, “Characterization of Subtype Selective Cannabinoid CB2 Receptor Agonists as Potential Anti-Inflammatory Agents” (Pharmaceuticals, 2021).

How the values were obtained:
CB1 receptor = target: T1, CB1 receptor (Homo sapiens, UniProt P21554); assay: Competitive [3H]CP55,940 radioligand binding, membrane from CB1 expressing HEK293 cells; settings: for Ki CB1 (CP55,940): competition with [3H]CP55,940, N.B. = no specific binding detected up to 10 μM of test compounds; for CB1 receptor binding: not bound up to: test compound 1 nM to 10 μM
T1 construct: expressed in transfected cells; host or cells: HEK293T cells (called 'HEK293 cells' in Results), calcium phosphate transfection, membrane preparation
From the text: (§1) To evaluate binding affinity of ABK5 analogs that have a difference in the position of substituents in the N-phenyl ring (Figure 1), we performed competitive radiolabeled ligand binding assays using cell membrane from HEK293T cells transfected with human CB2 receptors. […] ABK5-1, ABK5-2, and ABK5-6 dose-dependently competed with [^3H]CP55,940 and decreased the specific binding of the radiolabeled agonist, which reflects the binding of test compounds to CB2. […] Therefore, ABK5-5 was not considered for further evaluation in this study. […] We also examined CB2 selectivity (versus CB1) of the three compounds by performing similar binding assays using membrane from CB1 expressing HEK293 cells instead of CB2 expressing cells. […] Therefore, ABK5-1 and 5-2 maintained the CB2 subtype selectivity of ABK5.
(§2) In the experiment, 1 × 10^6 HEK293T cells were seeded in a 10-cm cell culture dish and cultured for 24 h. Cells were transfected with CB1 or CB2 using the calcium phosphate method. Approximately one day after transfection, cells were harvested and centrifuged at 4 °C for 5 min at 500× g. The pellet was washed with phosphate buffered saline (PBS) twice and resuspended in PBS containing 1% protease-inhibitor cocktail (Sigma-Aldrich, St. Louis, MO, USA) consisting of 104 mM 4-(2-aminoethyl) benzene sulfonyl fluoride hydrochloride (AEBSF), 80 μM apronitin, 4 mM bestatin, 1.64 mM E-64, 2 mM leupeptin, 1.5 mM pepstatin A. Then the cells were subjected to nitrogen cavitation under 750 psi for 5 min using a Parr cell disruption bomb. The lysate was centrifuged at 500× g for 10 min at 4 °C and the supernatant was spun at 116,000× g for 45 min at 4 °C. The pellet, consisting of the cell membrane expressing CB1 or CB2, was resuspended in TME buffer solution (25 mM Tris-HCl, 5 mM MgCl2, and 1 mM EDTA, pH 7.4) with 7% (w/v) sucrose/TME buffer. The concentration of the membrane protein was determined by the Bradford assay (Bradford, 1976).
(§3) Membrane protein was mixed with 1 nM to 10 μM of the test compounds and 1 nM [^3H]CP55,940 (164.9 Ci/mmol; PerkinElmer life Sciences, Waltham, MA, USA), and TME buffer supplemented with 0.2% BSA was used to bring the total volume to 200 μL. [^3H]CP55,940 acts as tracer and agonists that bind the target receptor compete with [^3H]CP55,940. Samples were incubated for 1 h at 30 °C. Ten μM unlabeled CP55,940 was used to determine non-specific binding. Reactions were stopped by adding 5% BSA/TME buffer (w/v) and samples were filtered through a Brandel cell harvester using Whatman GF/C filter paper. Ultima Gold XR liquid scintillation cocktail (PerkinElmer Life Sciences, Waltham, MA, USA) was then added and vortexed. A Beckman Coulter 6500 liquid scintillation counter was used to measure the radioactivity of the samples.
Results are presented as the mean ± standard deviation (S.D.). The ligand binding assays and the GTPγS binding assays were both carried out in duplicate for three independent experiments. The Ki values in the ligand binding assay were calculated using the Prism software (GraphPad Software Inc., San Diego, CA, USA), using IC50 values obtained from non-linear regression fitted to the one-site binding model. The Cheng-Prusoff equation [48], which is used for calculation of Ki value is shown below. (1) Ki=IC50/1+L/Kd

CB2 = target: T2, CB2 (Homo sapiens, UniProt P34972); assay: Competitive [3H]CP55,940 radioligand binding, CB2-transfected HEK293T cell membrane; settings: competition with [3H]CP55,940; mean ± S.D.
T2 construct: expressed in transfected cells; host or cells: HEK293T cells, calcium phosphate transfection, membrane preparation
From the text: as §1, §2
as §3, with “Reactions were stopped by adding 5% BSA/TME buffer (w/v) and samples were filtered through a Brandel cell harvester using Whatman GF/C filter paper. Ultima Gold XR liquid scintillation cocktail (PerkinElmer Life Sciences, Waltham, MA, USA) was then added and vortexed.” left out
Results are presented as the mean ± standard deviation (S.D.). […] The Ki values in the ligand binding assay were calculated using the Prism software (GraphPad Software Inc., San Diego, CA, USA), using IC50 values obtained from non-linear regression fitted to the one-site binding model. […]

T1 sequence (P21554 whole entry): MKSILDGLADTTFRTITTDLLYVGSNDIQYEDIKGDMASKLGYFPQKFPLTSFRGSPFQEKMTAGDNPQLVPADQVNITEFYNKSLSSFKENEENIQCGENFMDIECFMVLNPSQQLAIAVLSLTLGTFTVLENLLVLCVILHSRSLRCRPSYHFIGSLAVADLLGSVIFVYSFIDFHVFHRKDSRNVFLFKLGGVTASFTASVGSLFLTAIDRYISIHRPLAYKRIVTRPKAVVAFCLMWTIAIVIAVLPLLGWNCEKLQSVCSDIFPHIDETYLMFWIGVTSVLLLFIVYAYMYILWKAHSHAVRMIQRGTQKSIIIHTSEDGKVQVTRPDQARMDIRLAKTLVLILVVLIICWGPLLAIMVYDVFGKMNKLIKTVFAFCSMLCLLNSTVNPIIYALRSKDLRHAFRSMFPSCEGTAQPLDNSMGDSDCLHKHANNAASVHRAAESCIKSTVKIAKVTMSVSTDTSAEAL
T2 sequence (P34972 whole entry): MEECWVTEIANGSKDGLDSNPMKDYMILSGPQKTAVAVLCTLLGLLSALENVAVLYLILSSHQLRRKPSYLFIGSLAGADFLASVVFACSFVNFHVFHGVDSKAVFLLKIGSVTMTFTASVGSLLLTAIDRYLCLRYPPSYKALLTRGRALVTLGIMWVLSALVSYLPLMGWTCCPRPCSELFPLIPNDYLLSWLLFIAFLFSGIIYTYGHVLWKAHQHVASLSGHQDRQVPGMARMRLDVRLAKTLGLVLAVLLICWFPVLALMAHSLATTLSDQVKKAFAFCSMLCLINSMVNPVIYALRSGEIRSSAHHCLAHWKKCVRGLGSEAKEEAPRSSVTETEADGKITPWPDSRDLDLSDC

Ki CB1 (CP55,940) (CB1 receptor) | CB1 receptor binding: not bound up to (CB1 receptor) [µM] | Ki (CB2) [nM] | Compound
N.B. ^c | > 10 | 69 ± 19 | CCOC(=O)c1ccccc1NC(=O)CN(c1c(C)cccc1C)S(=O)(=O)c1ccccc1 [ABK5-2]
N.B. ^c | > 10 | 28 ± 5 | CCOC(=O)c1ccccc1NC(=O)CN(c1ccc(C)cc1C)S(=O)(=O)c1ccccc1 [ABK5-1]
